Reference: US20160184340A1, “THE USE OF SPINOSYNS AND SPINOSYN COMPOSITIONS AS LOCAL ANESTHETICS AND AS ANTIARRHYTHMIC AGENTS” (Entarco SA, priority 2010, published 2016)
Values joined by “and” are separate entries in the source; they are usually repeats but may differ in a detail not shown here. Identical values can stand only once. Counter-ions that a name gives are not always drawn. Like-named read-outs stand apart in the source and are kept apart here.

Legend:
male Sprague-Dawley rats [1] = experiment: Pain response testing, foot pinch test (Example 1, comparison with Lidocaine); format: in vivo; conditions: for Foot Pinch Test average per animal, round 1: group average (1 = no anesthetic effect, 0 = effect); for Foot Pinch Test average per animal, round 1 / Foot Pinch Test Results Round 1: 45 minutes post dose; for Foot Pinch Test average per animal, round 1 / Foot Pinch Test average per animal, round 2 / Foot Pinch Test average per animal, round 3 / Foot Pinch Test average per animal, round 4 / Foot Pinch Test average per animal, round 5 / Foot Pinch Test average per animal, round 6: SQ 1.33 mL/kg (spinosad 12 mg/kg; Lidocaine 26.6 mg/kg); for Foot Pinch Test average per animal, round 2 / Foot Pinch Test average per animal, round 3 / Foot Pinch Test average per animal, round 4 / Foot Pinch Test average per animal, round 5 / Foot Pinch Test average per animal, round 6: group average; for Foot Pinch Test average per animal, round 2 / Foot Pinch Test Results Round 2: 70 minutes post dose; for Foot Pinch Test average per animal, round 3 / Foot Pinch Test Results Round 3: 1.5 hour post dose; for Foot Pinch Test average per animal, round 4 / Foot Pinch Test Results Round 4: 2 hours post dose; for Foot Pinch Test average per animal, round 5 / Foot Pinch Test Results Round 5: 2.5 hours post dose; for Foot Pinch Test average per animal, round 6 / Foot Pinch Test Results Round 6: 4 hours post dose; for Foot Pinch Test Results Round 1 / Foot Pinch Test Results Round 2 / Foot Pinch Test Results Round 3 / Foot Pinch Test Results Round 4 / Foot Pinch Test Results Round 5 / Foot Pinch Test Results Round 6: individual animal; for Foot Pinch Test Results Round 1: single SQ 1.33 mL/kg into left hind foot (spinosad 12 mg/kg; Lidocaine 2% solution, 26.6 mg/kg); for Foot Pinch Test Results Round 2 / Foot Pinch Test Results Round 3 / Foot Pinch Test Results Round 4 / Foot Pinch Test Results Round 5 / Foot Pinch Test Results Round 6: single SQ 1.33 mL/kg (spinosad 12 mg/kg; Lidocaine 26.6 mg/kg)
Experimental: Positive control: Lidocaine (Manufacturer: VetTek), as a Lidocaine Hydrochloride (2% solution or approx. 74 mM)
Assay: Pain response testing-foot pinch
Animals used: male Sprague-Dawley rats
Experimental set-up. The test article was administered as follows:
Approximately 1.33 mL/kg spinosad solution was administered once, subcutaneously at 12 mg/kg (9 mg/mL, 1.33 mL/kg) into the left hind foot of each rat in the treatment group (Group 3), positive control group (Group 2, Lidocaine, 1.33 mL/kg), and control vehicle group (Group 1, DMSO, 1.33 mL/kg).
Beginning approximately 45 minutes post-dose all animals were subjected to pain response testing, foot pinch test. The test was conducted on each rat, in order, and then repeated on each, 5 more times (6 rounds of testing) through 4 hours post-dose. The foot pinch test measured the rodent's tolerance of pressure on their foot. The rat was removed from its cage and the treated foot was pinched. Whether or not the rodent's foot responded to the pinch was documented. The treatment group averages were compared to positive and negative control group averages (Table 3 and FIG. 1).
Six total rounds of foot pinch-pain response testing were conducted at approximately 45, 70, 90, 120, 150, and 240 minutes post-dose. Time of dosing and pain testing results were recorded for each animal.

[2] = target: cloned hERG potassium channels (Homo sapiens, UniProt Q12809)
Experimental: Rational for Ion channel selection: Inhibition of hERG (IKr) channels closely predicts the cardiac action potential prolongation. […] This stable expressed hERG cell line is widely used for hERG testing. The percentage inhibition of spinosad on human-ERG currents were evaluated from the gold standard manual patch clamp studies.
Test sample: spinosad (Supplier:Sigma-Aldrich/Fluka), in DMSO 9 mg/ml (0.8% w/w or approx. 12 mM)
Positive control: Terfenadine (Supplier: Sigma-Aldrich), in DMSO at a concentration of 1 mM.
All the final solutions contained no more than 0.3% DMSO.
Assay: Electrophysiology recording: Micropipette was pulled from borosilicate glass with the pipette tip resistance between 3-5 MΩ. For each experiment, a single dish of cells is removed from the incubator, washed twice with room temperature ECS and then placed on the microscope stage. A commercial patch clamp amplifier was used for the whole cell recordings.
Voltage protocol and current recording: The tail currents were evoked at room temperature once every 30 s by a 3 s −50 mV repolarizing pulse following a 2 s+50 mV depolarizing pulse with a hold voltage of −80 mV. A 50 ms depolarized pulse to −50 mV at the beginning of the voltage protocol served as a baseline for calculating the amplitude of the peak tail current. Only stable cells with recording parameters above threshold were allowed to enter the drug application procedure. The hERG currents were allowed to stabilize over a 3 minutes period in the presence of a vehicle alone prior to the application of spinosad. The cells were kept in the test solution until the peak tail current was stable (<5% change) for about 5 sweeps or for a maximum of 6 min, whichever came first.
Acceptance criteria for measurements: 1. Whole-cell membrane resistance (Rm) was greater than 1000 MΩ throughout the experiment. 2. Initial current was greater than 300 pA. 3. Series resistance value following establishment of whole-cell mode was less than 12 MΩ. 4. The leak current that the cell began with or developed over time was less than 10% of the ionic current magnitude (up to a maximum of 80 pA).

[3] = no value or species printed; cited from earlier work
male Sprague-Dawley rats [4] = experiment: Foot pinch test, duration of action and reversible effects (Example 2); format: in vivo; conditions: for Foot Pinch Test average per animal, round 1 / Foot Pinch Test average per animal, round 2 / Foot Pinch Test average per animal, round 3 / Foot Pinch Test average per animal, round 4 / Foot Pinch Test average per animal, round 5: group average; for Foot Pinch Test average per animal, round 1 / Foot Pinch Test Results Round 1: 1 hour post dose; for Foot Pinch Test average per animal, round 2 / Foot Pinch Test Results Round 2: 4 hours post dose; for Foot Pinch Test average per animal, round 3 / Foot Pinch Test Results Round 3: 6 hours post dose; for Foot Pinch Test average per animal, round 4 / Foot Pinch Test Results Round 4: 8 hours post dose; for Foot Pinch Test average per animal, round 5 / Foot Pinch Test Results Round 5: 24 hours post dose; for Foot Pinch Test Results Round 2 / Foot Pinch Test Results Round 3 / Foot Pinch Test Results Round 4 / Foot Pinch Test Results Round 5 / Foot Pinch Test Results Round 1: individual animal
Experimental: This test was conducted to establish spinosad's reversible local anesthetic effects and confirm the prolonged effect. The same assay as in example 1 was used.
Test article: spinosad in DMSO 9 mg/ml, administered in two doses; high dose 9 mg/kg and low dose 4.5 mg/kg.
The treatment group averages were compared to positive and negative control group averages (Table 6 and FIG. 2).

Chain of cloned hERG potassium channels (Q12809 whole entry): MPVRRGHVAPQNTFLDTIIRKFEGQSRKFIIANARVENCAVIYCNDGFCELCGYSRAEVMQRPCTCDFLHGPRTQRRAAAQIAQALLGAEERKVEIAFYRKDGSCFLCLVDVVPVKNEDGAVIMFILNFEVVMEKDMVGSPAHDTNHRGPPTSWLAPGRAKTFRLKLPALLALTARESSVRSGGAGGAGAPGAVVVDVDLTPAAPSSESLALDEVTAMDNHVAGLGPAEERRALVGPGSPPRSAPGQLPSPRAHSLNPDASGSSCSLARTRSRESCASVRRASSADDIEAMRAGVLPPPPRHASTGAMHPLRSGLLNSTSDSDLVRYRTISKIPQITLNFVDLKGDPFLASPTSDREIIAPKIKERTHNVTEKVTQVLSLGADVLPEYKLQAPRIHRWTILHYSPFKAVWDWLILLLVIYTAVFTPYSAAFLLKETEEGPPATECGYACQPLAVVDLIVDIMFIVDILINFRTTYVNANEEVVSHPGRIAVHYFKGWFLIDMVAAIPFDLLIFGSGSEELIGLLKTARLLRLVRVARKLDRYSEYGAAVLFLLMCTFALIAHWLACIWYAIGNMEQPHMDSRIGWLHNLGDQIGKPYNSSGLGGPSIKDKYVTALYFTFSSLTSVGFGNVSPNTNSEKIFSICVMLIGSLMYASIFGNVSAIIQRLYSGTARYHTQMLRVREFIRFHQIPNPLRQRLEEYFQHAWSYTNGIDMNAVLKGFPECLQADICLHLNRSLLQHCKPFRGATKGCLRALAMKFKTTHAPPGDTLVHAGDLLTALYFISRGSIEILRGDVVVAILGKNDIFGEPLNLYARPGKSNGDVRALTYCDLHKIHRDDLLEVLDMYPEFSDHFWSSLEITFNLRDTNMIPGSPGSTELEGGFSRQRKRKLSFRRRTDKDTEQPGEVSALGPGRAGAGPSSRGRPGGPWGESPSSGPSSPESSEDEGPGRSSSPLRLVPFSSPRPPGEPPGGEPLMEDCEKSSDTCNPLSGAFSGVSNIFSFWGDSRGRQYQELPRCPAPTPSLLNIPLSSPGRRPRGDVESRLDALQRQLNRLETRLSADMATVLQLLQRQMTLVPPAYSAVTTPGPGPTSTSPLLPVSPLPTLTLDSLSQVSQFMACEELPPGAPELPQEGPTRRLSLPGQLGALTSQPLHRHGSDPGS

Compound: CCN(CC)CC(=O)Nc1c(C)cccc1C [Lidocaine, Lidocaine Hydrochloride]
- Time by which localized anesthetic effect resolved (male Sprague-Dawley rats [1]; Lidocaine group, 1.33 mL/kg SQ, post-dose): ~70 min
- Foot Pinch Test average per animal, round 1 (male Sprague-Dawley rats [1]): 0.00
- Foot Pinch Test average per animal, round 2 (male Sprague-Dawley rats [1]): 0.67
- Foot Pinch Test average per animal, round 3 (male Sprague-Dawley rats [1]): 1.00
- Foot Pinch Test average per animal, round 4 (male Sprague-Dawley rats [1]): 1.00
- Foot Pinch Test average per animal, round 5 (male Sprague-Dawley rats [1]): 1.00
- Foot Pinch Test average per animal, round 6 (male Sprague-Dawley rats [1]): 1.00
- Foot Pinch Test Results Round 1 (male Sprague-Dawley rats [1]): 0.00
- Foot Pinch Test Results Round 2 (male Sprague-Dawley rats [1]; Hydrochloride): 1.00 (4×) and 0.00 (2×)
- Foot Pinch Test Results Round 3 (male Sprague-Dawley rats [1]): 1.00
- Foot Pinch Test Results Round 4 (male Sprague-Dawley rats [1]): 1.00
- Foot Pinch Test Results Round 5 (male Sprague-Dawley rats [1]): 1.00
- Foot Pinch Test Results Round 6 (male Sprague-Dawley rats [1]): 1.00

Compound: spinosad
- % Block Cell #2 ([2]; 1.35 μM): 3.5%
- % Block Cell #3 ([2]; 1.35 μM): 0.6%
- Average Inhibition (%) of hERG currents ([2]; 1.35 μM): 7.2±8.9%
- % Block Cell #1 ([2]; 1.35 μM, hERG tail current, room temperature): 17.3%
- % Block Cell #1 ([2]; 4.50 μM): 26.9%
- % Block Cell #2 ([2]; 4.50 μM): 19.2%
- % Block Cell #3 ([2]; 4.50 μM): 19.4%
- Average Inhibition (%) of hERG currents ([2]; 4.50 μM): 21.8±4.4%
- % Block Cell #1 ([2]; 13.50 μM): 30.3%
- % Block Cell #2 ([2]; 13.50 μM): 48.4%
- % Block Cell #3 ([2]; 13.50 μM): 47.7%
- % Block Cell #4 ([2]; 13.50 μM): 40.2%
- Average Inhibition (%) of hERG currents ([2]; 13.50 μM): 41.7±8.4%
- % Block Cell #2 ([2]; 36.00 μM): 77.5%
- % Block Cell #3 ([2]; 36.00 μM): 84.1%
- % Block Cell #4 ([2]; 36.00 μM): 73.2%
- Average Inhibition (%) of hERG currents ([2]; 36.00 μM): 78.3±5.5%
- Reversibility of blocking on hERG current ([2]; saline wash): reversible after one minute of saline wash
- Concentration dependence of hERG current inhibition ([2]; whole cell recordings, HEK293-hERG stable cell line): inhibited hERG currents in a concentration-dependent manner
- LD50 relative to lidocaine [3]: much higher LD50 than lidocaine
- Foot Pinch Test average per animal, round 1 (male Sprague-Dawley rats [4]; 4.5 mg/kg SQ): 0.50
- Foot Pinch Test average per animal, round 2 (male Sprague-Dawley rats [4]; 4.5 mg/kg SQ): 0.83
- Foot Pinch Test average per animal, round 3 (male Sprague-Dawley rats [4]; 4.5 mg/kg SQ): 1.00
- Foot Pinch Test average per animal, round 4 (male Sprague-Dawley rats [4]; 4.5 mg/kg SQ): 1.00
- Foot Pinch Test average per animal, round 5 (male Sprague-Dawley rats [4]; 4.5 mg/kg SQ): 1.00
- Foot Pinch Test average per animal, round 1 (male Sprague-Dawley rats [4]; 9.0 mg/kg SQ): 0.00
- Foot Pinch Test average per animal, round 2 (male Sprague-Dawley rats [4]; 9.0 mg/kg SQ): 0.17
- Foot Pinch Test average per animal, round 3 (male Sprague-Dawley rats [4]; 9.0 mg/kg SQ): 0.50
- Foot Pinch Test average per animal, round 4 (male Sprague-Dawley rats [4]; 9.0 mg/kg SQ): 0.50
- Foot Pinch Test average per animal, round 5 (male Sprague-Dawley rats [4]; 9.0 mg/kg SQ): 1.00
- Foot Pinch Test Results Round 2 (male Sprague-Dawley rats [4]; 4.5 mg/kg SQ, 4.5 mg/kg): 1.00 (5×) and 0.00
- Foot Pinch Test Results Round 3 (male Sprague-Dawley rats [4]; 4.5 mg/kg SQ): 1.00
- Foot Pinch Test Results Round 4 (male Sprague-Dawley rats [4]; 4.5 mg/kg SQ): 1.00
- Foot Pinch Test Results Round 5 (male Sprague-Dawley rats [4]; 4.5 mg/kg SQ): 1.00
- Foot Pinch Test Results Round 2 (male Sprague-Dawley rats [4]; 9.0 mg/kg SQ, 9 mg/kg): 0.00 (5×) and 1.00
- Foot Pinch Test Results Round 3 (male Sprague-Dawley rats [4]; 9.0 mg/kg SQ, 9 mg/kg): 0.00 (3×) and 1.00 (3×)
- Foot Pinch Test Results Round 4 (male Sprague-Dawley rats [4]; 9.0 mg/kg SQ, 9 mg/kg): 0.00 (3×) and 1.00 (3×)
- Foot Pinch Test Results Round 5 (male Sprague-Dawley rats [4]; 9.0 mg/kg SQ): 1.00
- Foot Pinch Test Results Round 1 (male Sprague-Dawley rats [4]; spinosad high dose 9.0 mg/kg SQ foot pad): 0.00
- Foot Pinch Test Results Round 1 (male Sprague-Dawley rats [4]; spinosad low dose 4.5 mg/kg SQ foot pad, 4.5 mg/kg): 1.00 (3×) and 0.00 (3×)
- Duration of local anesthetic effect (male Sprague-Dawley rats [4]; single SQ dose 4.5 mg/kg): lasted during the first hour of study only
- Duration of local anesthetic effect (remained unresolved) (male Sprague-Dawley rats [4]; single SQ dose 9 mg/kg): 6 to 8 h
- Reversibility of local anesthetic effect (male Sprague-Dawley rats [4]; single SQ dose 9 mg/kg): fully reversible at 24 hours
- Tolerability (male Sprague-Dawley rats [4]; single subcutaneous dose into the footpad at 9 mg/kg): well tolerated
- Foot Pinch Test average per animal, round 1 (male Sprague-Dawley rats [1]): 0.00
- Foot Pinch Test average per animal, round 2 (male Sprague-Dawley rats [1]): 0.00
- Foot Pinch Test average per animal, round 3 (male Sprague-Dawley rats [1]): 0.17
- Foot Pinch Test average per animal, round 4 (male Sprague-Dawley rats [1]): 0.17
- Foot Pinch Test average per animal, round 5 (male Sprague-Dawley rats [1]): 0.33
- Foot Pinch Test average per animal, round 6 (male Sprague-Dawley rats [1]): 0.50
- Foot Pinch Test Results Round 1 (male Sprague-Dawley rats [1]): 0.00
- Foot Pinch Test Results Round 2 (male Sprague-Dawley rats [1]): 0.00
- Foot Pinch Test Results Round 3 (male Sprague-Dawley rats [1]): 0.00 (5×) and 1.00
- Foot Pinch Test Results Round 4 (male Sprague-Dawley rats [1]): 0.00 (5×) and 1.00
- Foot Pinch Test Results Round 5 (male Sprague-Dawley rats [1]): 0.00 (4×) and 1.00 (2×)
- Foot Pinch Test Results Round 6 (male Sprague-Dawley rats [1]): 0.00 (3×) and 1.00 (3×)
- Duration of local anesthetic effect (remained unresolved) (male Sprague-Dawley rats [1]; single SQ dose 12 mg/kg, study duration 4 hours): ≥ 4 h
- Tolerability (male Sprague-Dawley rats [1]; single subcutaneous dose into the footpad at 12 mg/kg): well tolerated
